Type in all cases: in vivo, human
Data set [1] concerns subjects who met the Rome Criteria for IBS. Kind of data set: VAS abdominal pain score (20-point Visual Analogue scale) in IBS study. To be noted: for Regression analysis: dependence of VAS score on drug dosage: larger doses; for p-value of drop in mean VAS pain scores: oral. The text has this:
(§1) This is a longitudinal single blinded, randomized placebo controlled study in which patients act as their own controls. Subjects were volunteers who met the Rome Criteria for IBS and without other active bowel disease (i.e. GERD, colon cancer). Both adult men and women participated, ranging in age from 23 to 75 years old, with greater number of women by a ratio of 2.5:1. Subjects responded to a Bowel Symptom Questionnaire (B. Naliboff, UCLA) as well as a Brief Mood Survey (D. Burns, Stanford). […] In addition, data was collected during a washout period of one week without any study drug.
(§2) A titration period of three to four weeks is being used to stabilize each patient on an efficacious dose of medication. […] During each week of the titration period, the cocktail was modified to allow a gradual increase or decrease in dose. Results were collected weekly by questionnaires.
(§3) Benefit in treating chronic IBS using nerve-acting agents was quantified by a decrease in mean values of abdominal pain with a 20-point Visual Analogue scale and a decrease in bowel symptoms (bloating, etc.) using a 20-point scale. Mood was also followed by a Brief Mood Survey, which rates Depression, Anxiety, Panic, Anger and Suicidal Urge (88 points maximum total).

For data set [2] the test system is unchanged. Kind of data set: Brief Mood Survey in IBS study. To be noted: for Regression analysis: dependence of mood score on drug dosage: larger doses.
Text: as §1, §3

Data set [3] has the same test system. Kind of data set: Bloating score (20-point scale, Bowel Symptom Questionnaire) in IBS study. To be noted: for Regression analysis: dependence of bloating score on drug dosage: larger doses.
Text: as §1, §2, §3

For data set [4] the test system is unchanged. Kind of data set: IBS study, symptom scores overall (VAS pain, bloating, mood). To be noted: for Reduction of symptoms overall (H0 no reduction vs H1 some reduction) / Drug effect versus placebo effect, overall: result in words.
Text: as §1, §2, §3

For data set [5] the test system is unchanged. As to the kind of experiment: Side effects reported in IBS study. To be noted: 25 mg qhs; resolved after discontinuation.
Text: This is a longitudinal single blinded, randomized placebo controlled study in which patients act as their own controls. Subjects were volunteers who met the Rome Criteria for IBS and without other active bowel disease (i.e. GERD, colon cancer). Both adult men and women participated, ranging in age from 23 to 75 years old, with greater number of women by a ratio of 2.5:1. Subjects responded to a Bowel Symptom Questionnaire (B. Naliboff, UCLA) as well as a Brief Mood Survey (D. Burns, Stanford). Baseline questionnaire results were taken just prior to any drug treatment as well as shortly after. In addition, data was collected during a washout period of one week without any study drug. Drugs studied included intravenous lidocaine and a trial of the oral mexiletine, topiramate, gabapentin or placebo.
as §2

Where [6] appears, read: intravenous, 22 subjects, 20 point scale.

The structures appear in SMILES notation. Entries after “also recorded” stand apart in the source; their conditions may differ.

Consider `Cc1cccc(C)c1OCC(C)N` (centres unmarked) [mexiletine], for which the “Regression analysis: dependence of VAS score on drug dosage” value in data set [1] is given as “some effect”. In addition, the “VAS: drug effect versus placebo effect” value in data set [1] (result in words) was “different from placebo at all levels”. Moreover, the “Regression analysis: dependence of mood score on drug dosage” value in data set [2] is listed as “not very important for mood”. Moreover, the “Results in decreasing bloating” value in data set [3] (all dosages, 300 mg, 450 mg & 900 mg) was “significant results in decreasing bloating”. Moreover, in data set [3], the “Regression analysis: dependence of bloating score on drug dosage” value is given as “some effect”. For the same compound, the “Bloating: drug effect versus placebo effect” value in data set [3] (result in words) is listed as “different from placebo at all levels”. Besides, the “Reduction of symptoms overall (H0 no reduction vs H1 some reduction)” value in data set [4] is listed as “significant at all dosages”.
In the case of `NCC1(CC(=O)O)CCCCC1` [gabapentin], the “Regression analysis: dependence of VAS score on drug dosage” value in data set [1] is recorded as “some effect”. The “p-value of drop in mean VAS pain scores” value in data set [1] (300 mg) is recorded as 0.06. Moreover, the “p-value of drop in mean VAS pain scores” value in data set [1] (600 mg) was found to be 0.04. Besides, the “Regression analysis: dependence of mood score on drug dosage” value in data set [2] is reported as “not very important for mood”. For the same compound, in data set [3], the “Regression analysis: dependence of bloating score on drug dosage” value is given as “some effect”. Further, in data set [4], the “Drug effect versus placebo effect, overall” value was “different from placebo at doses 600 mg and higher”; the “Reduction of symptoms overall (H0 no reduction vs H1 some reduction)” value is given as “become more pronounced as the dosage is increased”.
`CC1(C)O[C@@H]2[C@@H](CO[C@@]3(COS(N)(=O)=O)OC(C)(C)O[C@@H]23)O1` [topiramate]: the “VAS: drug effect versus placebo effect” value in data set [1] (result in words) was “different from placebo for VAS and bloating at doses 50 mg and higher”. In data set [5], the “Side effects reported: fatigue, number of subjects” value is on record as “Two”. Moreover, the “Effect on decreasing bloating” value in data set [3] (60 mg) was “borderline effect”. Also, the “Bloating: drug effect versus placebo effect” value in data set [3] (result in words) was “different from placebo for VAS and bloating at doses 50 mg and higher”. The “Regression analysis: dependence of any score on drug dosage” value in data set [4] (larger doses) is “do not significantly reduce any score in a predictable manner”. In addition, the “Reduction of symptoms overall (H0 no reduction vs H1 some reduction)” value in data set [4] was “least effect of all drugs; also recorded: barely become significant at doses of 50 mg and higher”.
For `CCN(CC)CC(=O)Nc1c(C)cccc1C` [lidocaine], the “VAS Pain scores, mean reduction” value in data set [1] (setting [6]) amounted to 4.80. Further, in data set [1] (result in words), the “Reduction of VAS (H0 no reduction vs H1 some reduction)” value is “highly significant”. Moreover, in data set [2] (result in words), the “Effect on mood (H0 no reduction vs H1 some reduction)” value is given as “highly significant”. Further, in data set [3] (setting [6]), the “Bloating, mean reduction” value came to 6.8. Further, in data set [3] (result in words), the “Reduction of bloating (H0 no reduction vs H1 some reduction)” value is “highly significant”. Further, in data set [4] (intravenous), the “Relief of symptoms of abdominal pain, bloating and distension in IBS” value is on record as “very effective”. Besides, in data set [4], the “Drug effect versus placebo effect, overall” value is on record as “much stronger effect than placebo” and the “Reduction of symptoms overall (H0 no reduction vs H1 some reduction)” value is listed as “All patients had a significant drop in their scores”. In data set [4] (listed as Lidocaine), the “Reduction of symptoms overall (H0 no reduction vs H1 some reduction)” value was “most influential drug of all”.

These data come from patent US7750046B2, “Treatment of symptoms associated with irritable bowel syndrome” (The Board of Trustees of the Leland Stanford Jr. University, priority 2001, dated 2010).
